{"source": "patent US6943279B1", "about": "“Amino polyol amine oxidase polynucleotides and related polypeptides and methods of use” (priority 1999, dated 2005)", "key": {"[1]": {"test_system": "APAO", "assay": "APAO activity of crude cell-free extract, TLC", "type": "biochemical, Exophiala spinifera", "procedure": "(§1) For analysis of APAO activity, an alternative method was used. Equal volumes of sample and ^14C-AP1 (1 mg/ml, pH 8, 50 mM sodium phosphate) were incubated at room temperature for one to six days. Analytical thin-layer chromatography was then carried out on C60 HPK silica gel plates (Whatman #4807-700; 10×10 cm; 0.2 mm thick). After application of from 0.1 to 2 μl of aqueous sample, the plates were air-dried and developed in CHCl3:MeOH:CH3COOH:H20 (55:36:8:1). Plates were then air dried, and exposed to Phosphorlmager screen (Molecular Dynamics) or autoradiographic film. A Storm™ Phosphorlmager (Molecular Dynamics) was used to scan the image produced on the screen.\nA cell-free extract that contains the deaminase activity was obtained by subjecting substrate-induced Exophiala spinifera cells to disruption using a Bead Beater™ in 50 mM Na-phosphate, pH 8.0, and recovering the cell-free supernatant by centrifugation and 0.45 micron filtration. Catabolic activity is assayed by incubating extracts with AP1 (hydrolyzed fumonisin BI backbone) or “^4C-labelled AP1 with the extract and evaluating by TLC on C18 or C60 silica. […] Other amine-containing substrates were tested for modification by the crude extract. […] Preparative amounts of the product, named 2-OP, have also been purified and analyzed by C13 nmr."}, "[2]": {"test_system": "APAO enzyme", "type": "biochemical, Exophiala spinifera", "conditions": "1 mM substrate; pH 8.0, room temperature", "procedure": "The following assay was used to determine the substrate specificity of the APAO enzyme. […] The APAO enzyme was recombinant enzyme produced,as GST fusion in E. coli, purified over a glutathione affinity column and cleaved with thrombin to remove the GST. All components were mixed at room temperature. The initial rate was determined in a spectrophotometer at 572 nm over one minute by absorbance units/second (BLANK). Ten microliters of APAO at 70 ug/ml was added and mixed. The initial rate was again determined at 572 nm over one minute in absorbance units/second (SAMPLE). The rates were converted to absorbance units/minute. The BLANK value was subtracted from the SAMPLE value. The absorbance units were converted to μM H2O2 wherein 1 μM H2O2 equals 0.138 absorbance units at pH 8.0."}, "[3]": {"test_system": "Maize coleoptiles", "assay": "Effect of FB1 and AP1 on maize coleoptiles", "type": "cell-based", "design": "key to Injury of maize coleoptiles: + = brown necrotic discoloration of coleoptile; − = no symptoms (same as water control)", "conditions": "for Injury of maize coleoptiles: 2 days dark 28° C., then 3 days light", "procedure": "Maize coleoptiles from 4 day dark-grown germinated maize seeds were excised above the growing point and placed in 96-well microtiter plates in the presence of 60 microliters of sterile distilled water containing FB1 or AP1 at approximately equimolar concentrations of 1.5, 0.5, 0.15, 0.05, 0.015, 0.005, 0.0015, or 0.0005 millimolar, along with water controls. After 2 days in the dark at 28° C. the coleoptiles were placed in the light and incubated another 3 days."}, "[4]": {"test_system": "BMS cells", "assay": "Effect of FB1 and AP1 on maize tissue cultured cells (Black Mexican Sweet, BMS)", "type": "cell-based", "conditions": "for concentration at which growth of BMS cells was inhibited: 1 week, liquid culture, 96-well plates", "procedure": "FB1 or AP1 at various concentrations was added to suspensions of BMS cells growing in liquid culture medium in 96-well polystyrene plates. After 1 week the cell density in wells was observed under low power magnification and growth of toxin-treated wells was compared to control wells that received water. […] This represents an approximate 100-fold difference in toxicity to maize tissue cultured cells. […] AP1 was not tested in that study, however."}, "[5]": {"test_system": "Lemna tissues", "conditions": "AP1 versus FB1; cited from earlier work"}, "[6]": {"test_system": "tomato", "conditions": "cited from earlier work"}, "[7]": {"assay": "Other enzymes tested for ability to modify AP1, radiolabeled TLC", "type": "biochemical", "conditions": "optimal conditions at 37° Celsius, overnight or longer", "procedure": "as §1\nOther enzymes were tested for their ability to modify AP1. All enzymes were assayed by radiolabeled TLC, as described above, under optimal conditions at 37° Celsius, overnight or longer."}, "[8]": {"test_system": "maize callus", "conditions": "solid medium; cited from earlier work"}, "[9]": {"assay": "Pichia expression of trAPAO, TLC assay", "type": "biochemical, Pichia pastoris", "conditions": "pellet suspensions and lysates; 6 days room temperature", "procedure": "The Pichia culture fluids and pellets were assayed for APAO activity as described earlier.\nThe 50 μl cell pellets were resuspended in 150 μl cold 5OmM Na-phosphate, pH 8.0. and divided into two fresh 500 μl tubes. One tube was kept on ice with no treatment, the pellet suspension, and one tube was used for lysis. An equal volume of 0.1 mm zirconia-silica beads was added to each tube. The tubes were BeadBeatT™ for 15 seconds then cooled on ice 5 minutes. This was repeated three times. The crude lysate was then transferred to another tube for assay or lysate suspension.\nThe TLC assays were performed as follows, the samples are 1) pellet suspensions; 10 μl; 2) lysate suspensions; 10 μl; 3) media controls-mixed 5 μl media with 5 μl crude fungal enzyme; 10 μl; 4) positive control-used crude fungal enzyme undiluted; 10 μl; 5) substrate control-used 50 mM Na-phosphate, pH8.0; 10 μl. […]\nA positive TLC result is obtained if an additional radioactive spot appears at a lower Rf of the produced AP1 modification earlier identified as 2-OP, a deaminated product of AP1. In samples #6 and #52 (without intron) the AP1-modifying enzyme activity (conversion of AP1 to 2-OP) was detected in pellet suspensions and pellet lysates, although the majority of activity was associated with the pellet suspensions. […]"}, "[10]": {"assay": "Site-directed mutagenesis vectors: maize transient expression, APAO or trAPAO activity", "type": "biochemical", "conditions": "transient expression in maize", "text": "Please see the table above entitled “Table of site-directed mutagenesis vectors and enzyme assay results.” Thus, elimination of this glycosylation site is not in itself sufficient to have an active protein upon secretion. This could be due to glycosylation occurring at a second adjacent site (N201-S203). However, no active APAO was recovered when either N201 or S203 is mutated along with S206. […] This is backed up by predicted solvent accessibility numbers for these residues in the 3-D model based on the maize amine oxidase. Please see the table below entitled “Solvent accessibility for cysteine residues of truncated APAO.” The elimination of APAO glycosylation site at amino acids 204 to 206 is not sufficient to allow APAO to be secreted from the ccil and retain full enzyme activity, but elimination of this site may improve chances for obtaining a fully active enzyme once the other roadblock(s) to secretability have been resolved. In other words, elimination of this site may be necessary but not sufficient to produce active secretable APAO."}, "[11]": {"assay": "Mutated APAO lysates from E coli, Amplex Red assay, substrate AP1", "type": "biochemical", "conditions": "Glyc(−) APAO lysates from E coli"}, "[12]": {"assay": "Mutated APAO lysates from E coli, Amplex Red assay, substrate FB1", "type": "biochemical", "conditions": "Glyc(−) APAO lysates from E coli"}}, "data": [{"molecule": "CCCC[C@@H](C)[C@@H](O)[C@@H](O)C[C@@H](C)C[C@H](O)CCCC[C@@H](O)C[C@H](O)[C@H](C)N", "note": "[AP1]", "values": [{"measurement": "time to complete conversion to 2-OP", "setting": "[1]; pH 9", "value": 30, "unit": "min"}, {"measurement": "RATE", "setting": "[2]", "value": 0.8876, "unit": "μM H2O2/min"}, {"measurement": "Injury of maize coleoptiles", "setting": "[3]; 1.5 mM", "value": "+"}, {"measurement": "Injury of maize coleoptiles", "setting": "[3]; .0005 mM", "value": "−"}, {"measurement": "Injury of maize coleoptiles", "setting": "[3]; .0015 mM", "value": "−"}, {"measurement": "Injury of maize coleoptiles", "setting": "[3]; .005 mM", "value": "−"}, {"measurement": "Injury of maize coleoptiles", "setting": "[3]; .015 mM", "value": "−"}, {"measurement": "Injury of maize coleoptiles", "setting": "[3]; .05 mM", "value": "−"}, {"measurement": "Injury of maize coleoptiles", "setting": "[3]; .15 mM", "value": "−"}, {"measurement": "Injury of maize coleoptiles", "setting": "[3]; .5 mM", "value": "−"}, {"measurement": "difference in toxicity between FB1 and AP1 to maize coleoptiles", "setting": "[3]; AP1 versus FB1", "value": "≥ 30", "unit": "fold"}, {"measurement": "concentration at which growth of BMS cells was inhibited", "setting": "[4]", "value": 40000, "unit": "nM"}, {"measurement": "difference in toxicity to maize tissue cultured cells", "setting": "[4]; AP1 versus FB1", "value": "~100", "unit": "fold"}, {"measurement": "less toxic than FB1 in Lemna tissues", "setting": "[5]", "value": "approx. 40 fold"}, {"measurement": "reduction in toxicity to tomato by AP1 versus FB1", "setting": "[6]", "value": "~100", "unit": "fold"}]}, {"molecule": "D-amino oxidase: EC 1.4.3.3, porcine kidney: Type X", "values": [{"measurement": "Result (ability to modify AP1)", "setting": "[7]", "value": "negative"}]}, {"molecule": "CCCC[C@@H](C)[C@@H](OC(=O)C[C@@H](CC(=O)O)C(=O)O)[C@H](C[C@@H](C)C[C@H](O)CCCC[C@@H](O)C[C@H](O)[C@H](C)N)OC(=O)C[C@@H](CC(=O)O)C(=O)O", "note": "[FB1, fumonisin B1]", "values": [{"measurement": "modification by the crude extract", "setting": "[1]; crude cell-free extract of induced Exophiala spinifera, TLC", "value": "not modified"}, {"measurement": "RATE", "setting": "[2]", "value": 0.1429, "unit": "μM H2O2/min"}, {"measurement": "Injury of maize coleoptiles", "setting": "[3]; 1.5 mM", "value": "+"}, {"measurement": "Injury of maize coleoptiles", "setting": "[3]; .0005 mM", "value": "−"}, {"measurement": "Injury of maize coleoptiles", "setting": "[3]; .0015 mM", "value": "−"}, {"measurement": "Injury of maize coleoptiles", "setting": "[3]; .005 mM", "value": "−"}, {"measurement": "Injury of maize coleoptiles", "setting": "[3]; .05 mM", "value": "+"}, {"measurement": "Injury of maize coleoptiles", "setting": "[3]; .15 mM", "value": "+"}, {"measurement": "Injury of maize coleoptiles", "setting": "[3]; .5 mM", "value": "+"}, {"measurement": "concentration at which growth of BMS cells was inhibited", "setting": "[4]", "value": 400, "unit": "nM"}, {"measurement": "concentration giving significant inhibition of maize callus", "setting": "[8]", "value": 1400, "unit": "nM"}]}, {"molecule": "trAPAO: truncated, but still functional APAO (SEQ ID NO: 6) (protein, listed as Exophiala spinifera) DNVADVVVVGAGLSGLETARKVQAAGLSCLVLEAMDRVGGKTLSVQSGPGRTTINDLGAAWINDSNQSEVSRLFERFHLEGELQRTTGNSIHQAQDGTTTTAPYGDSLLSEEVASALAELLPVWSQLIEEHSLQDLKASPQAKRLDSVSFAHYCEKELNLPAVLGVANQITRALLGVEAHEISMLFLTDYIKSATGLSNIFSDKKDGGQYMRCKTGMQSICHAMSKELVPGSVHLNTPVAEIEQSASGCTVRSASGAVFRSKKVVVSLPTTLYPTLTFSPPLPAEKQALAENSILGYYSKIVFVWDKPWWREQGFSGVLQSSCDPISFARDTSIDVDRQWSITCFMVGDPGRKWSQQSKQVRQKSVWDQLRAAYENAGAQVPEPANVLEIEWSKQQYFQGAPSAVYGLNDLITLGSALRTPFKSVHFVGTETSLVWKGYMEGAIRSGQRGAAEVVASLVPAA", "values": [{"measurement": "APAO activity (conversion of AP1 to 2-OP) in Pichia transformants", "setting": "[9]", "value": "functions correctly in degrading AP1"}]}, {"molecule": "S206A: APAO mutated to alter the serine at position 206 to an alanine (SEQ ID NO: 33) (protein, Glyc(-) APAO; mutation in glycosylation sites (Exophiala spinifera)) MALAPSYINPPNVASPAGYSHVGVGPDGGRYVTIAGQIGQDASGVTDPAYEKQVAQAFANLRACLAAVGATSNDVTKLNYYIVDYAPSKLTAIGDGLKATFALDRLPPCTLVPVSALSSPEYLFEVDATALVPGHTTPDNVADVVVVGAGLSGLETARKVQAAGLSCLVLEAMDRVGGKTLSVQSGPGRTTINDLGAAWINDSNQAEVSRLFERFHLEGELQRTTGNSIHQAQDGTTTTAPYGDSLLSEEVASALAELLPVWSQLIEEHSLQDLKASPQAKRLDSVSFAHYCEKELNLPAVLGVANQITRALLGVEAHEISMLFLTDYIKSATGLSNIFSDKKDGGQYMRCKTGMQSICHAMSKELVPGSVHLNTPVAEIEQSASGCTVRSASGAVFRSKKVVVSLPTTLYPTLTFSPPLPAEKQALAENSILGYYSKIVFVWDKPWWREQGFSGVLQSSCDPISFARDTSIDVDRQWSITCFMVGDPGRKWSQQSKQVRQKSVWDQLRAAYENAGAQVPEPANVLEIEWSKQQYFQGAPSAVYGLNDLITLGSALRTPFKSVHFVGTETSLVWKGYMEGAIRSGQRGAAEVVASLVPAA", "values": [{"measurement": "Maize expression vector, APAO or trAPAO Activity (Act)", "setting": "[10]", "value": "no detectable enzyme activity"}, {"measurement": "Conclusion", "setting": "[11]", "value": "Partially Active"}, {"measurement": "M H2O2/min", "setting": "[11]", "value": 0.85, "unit": "μM H2O2/min"}, {"measurement": "Conclusion", "setting": "[12]", "value": "Slightly active"}, {"measurement": "M H2O2/min", "setting": "[12]", "value": 0.07, "unit": "μM H2O2/min"}]}]}
